# From ChEMBL document CHEMBL6092162, “Identification of novel and potent triazoles targeting CYP51 for antifungal: Design, synthesis, and biological study” (Eur J Med Chem, 2024)
# Activity calls are given as the source filed them. The rule behind the calls is not given here.
# Assays:
# Candida albicans [1] = experiment: Antifungal activity against fluconazole-resistant Candida albicans clinical isolate 103 assessed as inhibition of fungal growth by CLSI M27-A3 guidelines based method; type: functional
# Candida albicans [2] = experiment: Antifungal activity against fluconazole-resistant Candida albicans clinical isolate 632 assessed as inhibition of fungal growth by CLSI M27-A3 guidelines based method; type: functional
# Pichia kudriavzevii = experiment: Antifungal activity against Candida krusei GIM 2.1 assessed as inhibition of fungal growth by CLSI M27-A3 guidelines based method; type: functional
# Candida albicans [3] = experiment: Antifungal activity against Candida albicans GIM 2.194 assessed as inhibition of fungal growth by CLSI M27-A3 guidelines based method; type: functional
# Candida albicans [4] = experiment: Antifungal activity against Candida albicans SC5314 assessed as inhibition of fungal growth by CLSI M27-A3 guidelines based method; type: functional
# Candida albicans [5] = experiment: Antifungal activity against fluconazole-resistant Candida albicans clinical isolate 100 assessed as inhibition of fungal growth by CLSI M27-A3 guidelines based method; type: functional
# Candida albicans [6] = experiment: Antifungal activity against fluconazole-resistant Candida albicans clinical isolate 904 assessed as inhibition of fungal growth by CLSI M27-A3 guidelines based method; type: functional
# Candida parapsilosis = experiment: Antifungal activity against Candida parapsilosis GIM 2.190 assessed as inhibition of fungal growth by CLSI M27-A3 guidelines based method; type: functional; settings: Lodderomyces parapsilosis
# Candida tropicalis = experiment: Antifungal activity against Candida tropicalis GIM 2.183 assessed as inhibition of fungal growth by CLSI M27-A3 guidelines based method; type: functional
# Nakaseomyces glabratus = experiment: Antifungal activity against Candida glabrata assessed as inhibition of fungal growth by CLSI M27-A3 guidelines based method; type: functional
# Candida albicans [7] = experiment: Antifungal activity against fluconazole-resistant Candida albicans CaR assessed as inhibition of fungal growth by CLSI M27-A3 guidelines based method; type: functional
# Candida albicans [8] = experiment: Antifungal activity against fluconazole-resistant Candida albicans clinical isolate 311 assessed as inhibition of fungal growth by CLSI M27-A3 guidelines based method; type: functional
# Candida albicans [9] = experiment: Antifungal activity against fluconazole and iodiconazole resistant Candida albicans clinical isolate 17# assessed as inhibition of fungal growth by CLSI M27-A3 guidelines based method; type: functional
# Cryptococcus neoformans = experiment: Antifungal activity against Cryptococcus neoformans CGMCC 2.3161 assessed as inhibition of fungal growth by CLSI M27-A3 guidelines based method; type: functional
# Candida albicans [10] = experiment: Antifungal activity against fluconazole-resistant Candida albicans clinical isolate 901 assessed as inhibition of fungal growth by CLSI M27-A3 guidelines based method; type: functional
# [11] = Cytotoxicity against human OVCAR-3 cells assessed as inhibition of cell growth incubated for 72 hrs by MTT assay; type: toxicity, cell-based
# Candida albicans [12] = experiment: Selectivity ratio of MFC for fungicidal activity against Candida albicans SC5314 to MIC80 for antifungal activity against Candida albicans SC5314; type: functional
# [13] = Cytotoxicity against HEK293T cells assessed as inhibition of cell growth incubated for 72 hrs by MTT assay; type: toxicity, cell-based, HEK-293T; settings: human
# Candida albicans [14] = experiment: Antibiofilm activity against fluconazole-resistant Candida albicans CPCC400616 assessed as inhibition of metabolic activity of biofilm measured after 48 hrs by XTT reduction assay; type: functional
# Candida albicans [15] = experiment: Fungicidal activity against fluconazole and iodiconazole resistant Candida albicans clinical isolate 17# incubated for 48 hrs by SDA plate based method; type: functional
# [16] = Cytotoxicity against HUVEC cells assessed as inhibition of cell growth incubated for 72 hrs by MTT assay; type: toxicity, cell-based; settings: human
# [17] = Cytotoxicity against human NCI-H460 cells assessed as inhibition of cell growth incubated for 72 hrs by MTT assay; type: toxicity, cell-based
# Candida albicans [18] = experiment: Antibiofilm activity against Candida albicans CPCC400616 assessed as inhibition of morphological transformation by measuring disappearance of mycelium at 2 microg/ml incubated for 4 hrs by microscopic photograph analysis; type: functional, organism-based; settings: dose 2.0 µg/ml
# Candida albicans [19] = experiment: Selectivity ratio of MFC for fungicidal activity against fluconazole and iodiconazole resistant Candida albicans clinical isolate 17# to MIC80 for antifungal activity against fluconazole and iodiconazole resistant Candida albicans clinical isolate 17#; type: functional
# Candida albicans [20] = experiment: Antibiofilm activity against fluconazole-resistant Candida albicans CPCC400616 assessed as inhibition of metabolic activity of biofilm measured after 6 hrs by XTT reduction assay; type: functional
# Candida albicans [21] = experiment: Antibiofilm activity against fluconazole-resistant Candida albicans CPCC400616 assessed as inhibition of metabolic activity of biofilm measured after 24 hrs by XTT reduction assay; type: functional
# Candida albicans [22] = experiment: Fungicidal activity against Candida albicans SC5314 incubated for 48 hrs by SDA plate based method; type: functional
# Candida albicans [23] = experiment: Effect on sterol composition in Candida albicans SC5314 assessed as 14alpha-demethyllanosterol content at 1 microg/ml measured after 16 hrs by GC-MS analysis (reference value: 1.98 %); type: functional; settings: dose 1 µg/ml
# Candida albicans [24] = experiment: Effect on sterol composition in Candida albicans SC5314 assessed as lanosterol content at 1 microg/ml measured after 16 hrs by GC-MS analysis relative to control; type: functional; settings: dose 1 µg/ml
# Candida albicans [25] = experiment: Effect on sterol composition in Candida albicans SC5314 assessed as eburicol content at 1 microg/ml measured after 16 hrs by GC-MS analysis relative to control; type: functional; settings: dose 1 µg/ml
# Candida albicans [26] = experiment: Effect on sterol composition in Candida albicans SC5314 assessed as ergosterol content at 1 microg/ml measured after 16 hrs by GC-MS analysis (reference value: 96.96 %); type: functional; settings: dose 1 µg/ml
# Candida albicans [27] = experiment: Effect on sterol composition in Candida albicans SC5314 assessed as obtusifoliol content at 1 microg/ml measured after 16 hrs by GC-MS analysis relative to control; type: functional; settings: dose 1 µg/ml
# Candida albicans [28] = experiment: Effect on sterol composition in Candida albicans SC5314 assessed as other sterols content at 1 microg/ml measured after 16 hrs by GC-MS analysis (reference value: 1.06 %); type: functional; settings: dose 1 µg/ml
Structure (SMILES),MIC80 (Candida albicans [1]) [µg/mL],MIC80 (Candida albicans [2]) [µg/mL],MIC80 (Pichia kudriavzevii) [µg/mL],MIC80 (Candida albicans [3]) [µg/mL],MIC80 (Candida albicans [4]) [µg/mL],MIC80 (Candida albicans [5]) [µg/mL],MIC80 (Candida albicans [6]) [µg/mL],MIC80 (Candida parapsilosis) [µg/mL],MIC80 (Candida tropicalis) [µg/mL],MIC80 (Nakaseomyces glabratus) [µg/mL],MIC80 (Candida albicans [7]) [µg/mL],MIC80 (Candida albicans [8]) [µg/mL],MIC80 (Candida albicans [9]) [µg/mL],MIC80 (Cryptococcus neoformans) [µg/mL],MIC80 (Candida albicans [10]) [µg/mL],also measured
CN(Cc1ccc(N2CCN(Cc3ccc(OC(F)(F)F)cc3)CC2)cc1)CC(O)(Cn1cncn1)c1ccc(F)cc1F (stereo unspecified),32,32,0.1,0.013,0.013,8,32,0.025,0.006,0.1,0.063,> 64,0.125,0.1,> 64,–
CN(Cc1ccc(N2CCN(Cc3ccc(C(C)(C)C)cc3)CC2)cc1)CC(O)(Cn1cncn1)c1ccc(F)cc1F (stereo unspecified),8,16,–,0.006,0.013,8,32,0.006,0.013,0.1,0.063,8,0.125,0.1,> 64,–
CN(Cc1ccc(N2CCN(Cc3cccc(Br)c3)CC2)cc1)CC(O)(Cn1cncn1)c1ccc(F)cc1F (stereo unspecified),32,8,0.1,0.013,0.013,8,16,0.006,0.013,0.2,0.063,32,0.063,0.1,> 64,–
CN(Cc1ccc(I)cc1)CC(O)(Cn1cncn1)c1ccc(F)cc1F (stereo unspecified),32,16,0.2,0.025,0.013,2,8,0.025,0.013,0.2,2,> 64,0.25,0.1,> 64,IC50 at 72 h [11]: > 10 µM; Selectivity ratio (Candida albicans [12]): >256; IC50 at 72 h [13]: > 10 µM; MIC50 (Candida albicans [14]): > 32 µg/mL; MFC (Candida albicans [15]): 32 µg/mL; IC50 at 72 h [16]: > 10 µM; IC50 at 72 h [17]: > 10 µM; Activity (Candida albicans [18]): Active; Selectivity ratio (Candida albicans [19]): 128; MIC50 (Candida albicans [20]): 8 µg/mL; MIC50 (Candida albicans [21]): 16 µg/mL; MFC (Candida albicans [22]): 32 µg/mL
CN(Cc1ccc(N2CCN(Cc3ccccc3Br)CC2)cc1)CC(O)(Cn1cncn1)c1ccc(F)cc1F (stereo unspecified),16,8,0.1,0.006,0.013,4,16,0.006,0.013,0.1,0.063,32,0.063,–,> 64,–
OC(Cn1cncn1)(Cn1cncn1)c1ccc(F)cc1F [FLUCONAZOLE],> 64,> 64,8,0.5,0.25,> 64,> 64,1,0.25,8,> 64,> 64,> 64,4,> 64,Activity (Candida albicans [23]): 3.03%; IC50 at 72 h [11]: > 40 µM; IC50 at 72 h [13]: > 40 µM; MIC50 (Candida albicans [14]): > 32 µg/mL; MFC (Candida albicans [15]): > 64 µg/mL; Activity (Candida albicans [24]): 9.3%; Activity (Candida albicans [25]): 60.09%; IC50 at 72 h [16]: > 40 µM; Activity (Candida albicans [26]): 4.57%; IC50 at 72 h [17]: > 40 µM; Activity (Candida albicans [18]): Not active; Oval Shaped Yeast Phase Fungi Observed; Activity (Candida albicans [27]): 14.37%; MIC50 (Candida albicans [20]): 16 µg/mL; MIC50 (Candida albicans [21]): > 32 µg/mL; Activity (Candida albicans [28]): 8.64%; MFC (Candida albicans [22]): > 64 µg/mL
CN(Cc1ccc(N2CCN(Cc3cc(F)ccc3Br)CC2)cc1)CC(O)(Cn1cncn1)c1ccc(F)cc1F (stereo unspecified),8,16,0.1,0.025,0.013,2,8,0.006,0.006,0.1,0.063,32,0.25,–,> 64,–
CN(Cc1ccc(N2CCN(Cc3ccc(C(F)(F)F)cc3)CC2)cc1)CC(O)(Cn1cncn1)c1ccc(F)cc1F (stereo unspecified),32,16,–,0.013,0.013,8,32,0.013,0.013,0.1,0.063,32,0.125,0.1,> 64,–
CN(Cc1ccc(N2CCN(Cc3ccc(Cl)cc3Br)CC2)cc1)CC(O)(Cn1cncn1)c1ccc(F)cc1F (stereo unspecified),> 64,32,–,0.006,0.006,8,32,0.006,0.006,–,0.125,> 64,1,–,> 64,–
